The structures appear in SMILES notation.

Test [1] deals with T1, human full length PIK3KA H1047R mutant (p110α/p85α complex) (Homo sapiens, UniProt P42336, H1047R).
T1 construct: Recombinant, catalytically active human full length PIK3KA Wild-type and H1047R mutant were purchased as 1:1 complex; 6xHis (N); purchased EMD Millipore Sigma 14-792M
Nature of the test: PI3K-alpha kinase (PIK3CA) biochemical activity, H1047R mutant, ADP-Glo. The note with it: PI3K-α (PIK3CA) biochemical, H1047R mutant, Soy PI lipid substrate. In short, it runs like this:
(§1)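 ADP formation, read by ADP-Glo, is run to about 10% ATP turnover at 27 °C with 20 μM ATP and 50 μM PIP2diC8 or soy PI. WT or H1047R p110α/p85α (1–5 nM) is pre-incubated 1 h with compound in HEPES pH 7.4/MgCl2/Triton buffer, 1% DMSO. 10-point 1:3 series, logistic IC50 versus no-enzyme and DMSO controls.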

For test [2], the target named is T2, human full length PIK3KA Wild-type (p110α/p85α complex) (Homo sapiens, UniProt P42336).
T2 construct: Recombinant, catalytically active human full length PIK3KA Wild-type and H1047R mutant were purchased as 1:1 complex; 6xHis (N); purchased EMD Millipore Sigma 14-602M
In words: PI3K-alpha kinase (PIK3CA) biochemical activity, wild-type, ADP-Glo. The note with it: PI3K-α (PIK3CA) biochemical, Soy PI lipid substrate. In short, it runs like this: as §1
In general terms: In ADP-Glo the light output rises with the ADP produced.

The subject of test [3] is PI3K-α (PIK3CA) in MDA-MB-453 cells. In words: PI3K-alpha kinase (PIK3CA) activity in vitro cell based assay, MDA-MB-453 cells, AlphaLisa SureFire. The settings on record: 0% FBS, 3 hours treatment, relative IC50. The procedure:
PI3K-Alpha Kinase (PIK3CA) Activity In Vitro Cell Based Assay and Determining IC50 Values for Inhibitors
The MDA-MB-453 (ATCC-HTB-131) cell line was obtained from the American Type Culture Collection (Manassas, VA). Cells were maintained in Dulbecco's Modified Eagle Media (DMEM, Gibco 11965-092) supplemented with 10% Fetal Bovine Serum, heat inactivated (FBS HI, Gibco 10082-147), 1× non-essential amino acids (NEAA, Gibco 11140-050), and 1 mM sodium pyruvate (Gibco 11360-070). Cultures were maintained in a humidified incubator at 37° C. under 5% CO2/95% air.
For compound testing in 0% FBS, MDA-MB-453 cells were seeded at a density of 1.5×10^4 cells per well in white 384-well plates in 20 μl of Minimum Essential Media (MEM) assay media with 1×NEAA, 1 mM sodium pyruvate, and 1 μg/mL human insulin (Sigma I9278). Compounds dissolved in 10 mM stock solutions in DMSO were serially diluted 1:3 in DMSO to generate a 10-point dilution series and plated using an acoustic liquid handler system (Echo 550 Series Liquid Handler, Labcyte). A 5× intermediate compound dilution plate in MEM with 1×NEAA and 1 mM sodium pyruvate (150 μM starting compound concentration in 1.5% DMSO) was then prepared. Five μl of the intermediate serially diluted compounds were added to the cell plate to final concentrations ranging from […] in 0.3% DMSO. 0.3% DMSO alone was used to establish the maximum (MAX) signal and GDC-0032 at a final concentration of 1 μM was used as a reference compound for the minimum (MIN) signal. After 3 hours treatment, the medium was removed, and the cells lysed in 10 μL of 1× SureFire Lysis buffer with shaking for 10 minutes at room temperature. The Acceptor Mix (Reaction Buffer 1+Reaction Buffer 2+Activation Buffer+SureFire Ultra Acceptor Beads) was prepared by diluting Activation buffer 25-fold in combined Reaction Buffer 1 and Reaction Buffer 2. The Acceptor beads were diluted 50-fold in the combined Reaction Buffers. Five μL of Acceptor Mix was added to each well, the plate was sealed and covered with foil and incubated for 1 hour at room temperature. The Donor Mix (dilution buffer+SureFire Ultra Donor Beads) was prepared by diluting Donor Beads 50-fold in dilution buffer. Five μL of the Donor Mix was added to each well and the plate sealed and covered with foil and incubated for 1 hour at room temperature in the dark. The plates were read on a Neo2 plate reader instrument from Biotek using standard AlphaLisa settings. Compounds were tested in duplicate and the average % inhibition at each compound concentration was used to generate a single dose response curve. The data were processed using the Genedata-Screener tool. Relative IC50 values were determined using luminescence units by calculating percent inhibition with respect to the in-plate “MIN” (GDC-0032 reference control) and “MAX” (DMSO) controls. The data was analyzed using a 4-parameter nonlinear logistic equation (four-parameter logistic concentration-response curve): Y=bottom+[(top−bottom)/1+(X/IC50)slope] where Y=% inhibition, X=concentration of inhibitor, bottom=minimum value of y attained by curve-fit, top=maximum value of y attained by curve-fit and slope=steepness of curve at the IC50. % Inhibition=[(signal at X−median Min)/(median Max−median Min)]×100 IC50: concentration of compound that reduces a given response (ligand binding, enzyme response) by 50%. Relative IC50: concentration giving half the compound's maximum response.
For IC50 values shown in Table B, “A” means IC50<50 nM; “B” means IC50 ranging between 50 nM and 100 nM; “C” means IC50 ranging between 100 nM and 500 nM; “D” means IC50>500 nM.
In general terms: Bead proximity is the source of the signal in Alpha formats.

T1 sequence (P42336 whole entry H1047R): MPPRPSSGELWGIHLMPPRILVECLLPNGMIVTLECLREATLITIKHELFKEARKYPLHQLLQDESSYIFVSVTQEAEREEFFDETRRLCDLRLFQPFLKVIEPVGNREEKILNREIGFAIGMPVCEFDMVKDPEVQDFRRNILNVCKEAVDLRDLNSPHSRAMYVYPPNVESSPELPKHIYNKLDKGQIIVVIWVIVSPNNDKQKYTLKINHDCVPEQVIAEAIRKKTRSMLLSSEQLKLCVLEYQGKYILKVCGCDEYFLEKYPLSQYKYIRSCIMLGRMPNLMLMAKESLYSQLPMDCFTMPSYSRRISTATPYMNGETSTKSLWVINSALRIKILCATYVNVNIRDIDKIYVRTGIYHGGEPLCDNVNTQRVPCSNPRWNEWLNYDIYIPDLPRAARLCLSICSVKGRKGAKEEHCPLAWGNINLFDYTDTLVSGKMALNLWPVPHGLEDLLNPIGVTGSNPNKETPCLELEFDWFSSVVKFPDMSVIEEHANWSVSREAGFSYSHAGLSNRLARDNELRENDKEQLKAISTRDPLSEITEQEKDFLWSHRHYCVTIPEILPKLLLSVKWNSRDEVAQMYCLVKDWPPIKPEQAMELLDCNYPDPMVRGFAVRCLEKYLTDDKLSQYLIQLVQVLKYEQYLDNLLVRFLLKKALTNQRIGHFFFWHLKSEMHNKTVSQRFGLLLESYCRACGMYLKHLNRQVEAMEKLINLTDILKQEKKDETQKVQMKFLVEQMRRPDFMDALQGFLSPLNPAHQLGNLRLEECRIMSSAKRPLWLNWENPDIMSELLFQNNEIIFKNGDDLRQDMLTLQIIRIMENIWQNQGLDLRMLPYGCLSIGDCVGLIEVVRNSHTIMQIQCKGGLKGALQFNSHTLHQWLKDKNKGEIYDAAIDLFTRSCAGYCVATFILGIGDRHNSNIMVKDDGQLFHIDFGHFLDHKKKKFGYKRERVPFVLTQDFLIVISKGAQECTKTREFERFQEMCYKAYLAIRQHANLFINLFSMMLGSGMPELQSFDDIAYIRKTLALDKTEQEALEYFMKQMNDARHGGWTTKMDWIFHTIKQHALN
T1 sequence (P27986 whole entry partner): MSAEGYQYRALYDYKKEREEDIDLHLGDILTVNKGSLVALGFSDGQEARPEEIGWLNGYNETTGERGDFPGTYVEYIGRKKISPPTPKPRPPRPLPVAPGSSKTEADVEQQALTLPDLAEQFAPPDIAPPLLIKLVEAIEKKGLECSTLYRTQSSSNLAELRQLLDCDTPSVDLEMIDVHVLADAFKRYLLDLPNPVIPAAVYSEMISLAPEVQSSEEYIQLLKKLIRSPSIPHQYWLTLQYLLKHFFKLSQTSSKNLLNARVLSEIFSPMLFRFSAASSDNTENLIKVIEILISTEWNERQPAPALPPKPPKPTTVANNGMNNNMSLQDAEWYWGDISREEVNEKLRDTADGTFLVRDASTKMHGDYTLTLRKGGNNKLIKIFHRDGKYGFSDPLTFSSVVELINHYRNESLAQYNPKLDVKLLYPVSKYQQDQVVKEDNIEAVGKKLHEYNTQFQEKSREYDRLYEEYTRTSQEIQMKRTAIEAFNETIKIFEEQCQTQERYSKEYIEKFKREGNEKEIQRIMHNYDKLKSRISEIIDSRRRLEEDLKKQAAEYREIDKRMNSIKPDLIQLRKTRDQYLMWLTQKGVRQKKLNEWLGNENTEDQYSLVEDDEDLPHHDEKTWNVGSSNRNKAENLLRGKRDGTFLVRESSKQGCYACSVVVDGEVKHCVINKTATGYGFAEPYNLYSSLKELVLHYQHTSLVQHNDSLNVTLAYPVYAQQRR

As a reminder, the IC50 is the point on the concentration scale where inhibition reaches its midpoint. Regarding `Cc1cc([C@@H](C)Nc2ccc(Cl)nc2C(=O)O)c2oc(-c3ccc(F)c(F)c3)c(C)c(=O)c2c1` [Example 113, 6-Chloro-3-[[(1R)-1-[2-(3,4-difluorophenyl)-3,6-dimethyl-4-oxo-chromen-8-yl]ethyl]amino]pyridine-2-carboxylic acid], the half-inhibitory concentration (IC50) in test [1] was less than 500 nM; in test [2], 1000 to 5000 nM; in test [3] (Homo sapiens, MDA-MB-453, 3 h) it was less than 50 nM.

For the molecule `Cc1cc([C@@H](C)Nc2cccnc2C(=O)O)c2oc(-c3ccc(F)c(F)c3)c(C)c(=O)c2c1` [Example 120, 3-[[(1R)-1-[2-(3,4-Difluorophenyl)-3,6-dimethyl-4-oxo-chromen-8-yl]ethyl]amino]pyridine-2-carboxylic acid], the IC50 in test [1] was 1000 to 5000 nM; in test [2] it was greater than 10000 nM; in test [3] (Homo sapiens, MDA-MB-453, 3 h), 50 to 100 nM.

Take `COc1ccc(NC(C)c2cc(C)cc3c(=O)c(C)c(-c4ccccc4)oc23)c(C(=O)O)n1` (single isomer, unassigned; isomer 2) [Example 110, 3-[1-(3,6-Dimethyl-4-oxo-2-phenyl-chromen-8-yl)ethylamino]-6-methoxy-pyridine-2-carboxylic acid, Isomer 2]: the IC50 in test [1] was 1000 to 5000 nM; in test [2], 1000 to 5000 nM; in test [3] it was greater than 500 nM.

For the molecule `Cc1cc([C@@H](C)Nc2ccccc2C(=O)O)c2oc(-c3ccc(F)c(F)c3)c(C)c(=O)c2c1` [Example 78, 2-[[(1R)-1-[2-(3,4-Difluorophenyl)-3,6-dimethyl-4-oxo-chromen-8-yl]ethyl]amino]benzoic acid 2,2,2-trifluoroacetic acid], the IC50 in test [1] is less than 500 nM; in test [2], 1000 to 5000 nM; in test [3] (Homo sapiens, MDA-MB-453, 3 h), less than 50 nM.

The molecule `Cc1cc([C@@H](C)Nc2ccccc2C(=O)O)c2oc(-c3cccc(-c4cccc(C#N)c4)c3)c(C)c(=O)c2c1` [Example 176, 2-[[(1R)-1-[2-[3-(3-Cyanophenyl)phenyl]-3,6-dimethyl-4-oxo-chromen-8-yl]ethyl]amino]benzoic acid] yielded an IC50 in test [3] (Homo sapiens, MDA-MB-453, 3 h) of 50 to 100 nM.

Regarding `Cc1cc([C@@H](C)Nc2ccc(Cl)cc2C(=O)O)c2oc(-c3ccccc3F)c(C)c(=O)c2c1` [Example 147, 5-Chloro-2-[[(1R)-1-[2-(2-fluorophenyl)-3,6-dimethyl-4-oxo-chromen-8-yl]ethyl]amino]benzoic acid], the IC50 was 500 to 1000 nM in test [1]; 1000 to 5000 nM in test [2]; less than 50 nM in test [3] (Homo sapiens, MDA-MB-453, 3 h).

Take `Cc1cc([C@@H](C)Nc2ccccc2C(=O)O)c2oc(-c3ccc(-c4cnn(C)c4)cc3)c(C)c(=O)c2c1` [Example 164, 2-[[(1R)-1-[3,6-Dimethyl-2-[4-(1-methylpyrazol-4-yl)phenyl]-4-oxo-chromen-8-yl]ethyl]amino]benzoic acid]: the IC50 in test [1] was less than 500 nM; in test [2], less than 500 nM; in test [3] (Homo sapiens, MDA-MB-453, 3 h) it was less than 50 nM.

Turning to `Cc1cc([C@@H](C)Nc2ccccc2C(=O)O)c2oc(-c3ccc(-c4cn[nH]c4)cc3)c(C)c(=O)c2c1` [Example 162, 2-[[(1R)-1-[3,6-Dimethyl-4-oxo-2-[4-(1H-pyrazol-4-yl)phenyl]chromen-8-yl]ethyl]amino]benzoic acid], the concentration for half-maximal inhibition (IC50) is less than 500 nM in test [1]; 500 to 1000 nM in test [2]; less than 50 nM in test [3] (Homo sapiens, MDA-MB-453, 3 h).

Consider `Cc1cc([C@@H](C)Nc2cccnc2C(=O)O)c2oc(-c3cccc(C#N)c3)c(C)c(=O)c2c1` [Example 125, 3-[[(1R)-1-[2-(3-Cyanophenyl)-3,6-dimethyl-4-oxo-chromen-8-yl]ethyl]amino]pyridine-2-carboxylic acid], for which the IC50 in test [1] lay within 500 to 1000 nM; in test [2], 5000 to 10000 nM; in test [3] (Homo sapiens, MDA-MB-453, 3 h), 50 to 100 nM.

With `Cc1cc([C@@H](C)Nc2ccc(C#N)cc2C(=O)O)c2oc(-c3ccccc3)c(C)c(=O)c2c1` (single isomer, unassigned; isomer 2) [Example 158], the results for the IC50 in test [1], in test [2] and in test [3] were less than 500 nM, 1000 to 5000 nM and less than 50 nM, respectively.

`Cc1cc([C@@H](C)Nc2ccccc2C(=O)O)c2oc(-c3ccc(-c4ccccc4C#N)cc3)c(C)c(=O)c2c1` [Example 177, 2-[[(1R)-1-[2-[4-(2-Cyanophenyl)phenyl]-3,6-dimethyl-4-oxo-chromen-8-yl]ethyl]amino]benzoic acid] came in with an IC50 in test [3] (Homo sapiens, MDA-MB-453, 3 h) of less than 50 nM.

For `Cc1cc([C@@H](C)Nc2cccc(F)c2C(=O)O)c2oc(-c3cccc(F)c3)c(C)c(=O)c2c1` [Example 143, 2-Fluoro-6-[[(1R)-1-[2-(3-fluorophenyl)-3,6-dimethyl-4-oxo-chromen-8-yl]ethyl]amino]benzoic acid 2,2,2-trifluoroacetic acid], the IC50 in test [3] (Homo sapiens, MDA-MB-453, 3 h) is less than 50 nM.

Turning to `Cc1cc([C@@H](C)Nc2ccccc2C(=O)O)c2oc(-c3cccc(-n4cc(C#N)cn4)c3)c(C)c(=O)c2c1` [Example 178, 2-[[(1R)-1-[2-[3-(4-Cyanopyrazol-1-yl)phenyl]-3,6-dimethyl-4-oxo-chromen-8-yl]ethyl]amino]benzoic acid 2,2,2-trifluoroacetic acid], the IC50 in test [3] (Homo sapiens, MDA-MB-453, 3 h) was less than 50 nM.

On to `Cc1cc([C@@H](C)Nc2ccccc2C(=O)O)c2oc(-c3ccc(-c4cccc(C#N)c4)cc3)c(C)c(=O)c2c1` [Example 173, 2-[[(1R)-1-[2-[4-(3-Cyanophenyl)phenyl]-3,6-dimethyl-4-oxo-chromen-8-yl]ethyl]amino]benzoic acid], for which the IC50 in test [3] (Homo sapiens, MDA-MB-453, 3 h) lay within 50 to 100 nM.

Turning to `Cc1cc([C@@H](C)Nc2ccccc2C(=O)O)c2oc(-c3cccc(C#N)c3F)c(C)c(=O)c2c1` [Example 170, 2-[[(1R)-1-[2-(3-Cyano-2-fluoro-phenyl)-3,6-dimethyl-4-oxo-chromen-8-yl]ethyl]amino]benzoic acid], in test [3] (Homo sapiens, MDA-MB-453, 3 h), the IC50 was less than 50 nM.

Regarding `Cc1cc([C@@H](C)Nc2ccccc2C(=O)O)c2oc(-c3cccc(-c4ccc(C#N)cc4)c3)c(C)c(=O)c2c1` [Example 175, 2-[[(1R)-1-[2-[3-(4-Cyanophenyl)phenyl]-3,6-dimethyl-4-oxo-chromen-8-yl]ethyl]amino]benzoic acid], in test [3] (Homo sapiens, MDA-MB-453, 3 h), the IC50 is 50 to 100 nM.

In test [3] (Homo sapiens, MDA-MB-453, 3 h), `Cc1cc([C@@H](C)Nc2ccccc2C(=O)O)c2oc(-c3cccc(-c4ccccc4C#N)c3)c(C)c(=O)c2c1` [Example 174, 2-[[(1R)-1-[2-[3-(2-Cyanophenyl)phenyl]-3,6-dimethyl-4-oxo-chromen-8-yl]ethyl]amino]benzoic acid] yielded an IC50 of less than 50 nM.

`Cc1cc([C@@H](C)Nc2ccccc2C(=O)O)c2oc(-c3ccc(-c4ccc(C#N)cc4)cc3)c(C)c(=O)c2c1` [Example 172, 2-[[(1R)-1-[2-[4-(4-Cyanophenyl)phenyl]-3,6-dimethyl-4-oxo-chromen-8-yl]ethyl]amino]benzoic acid]: in test [3] (Homo sapiens, MDA-MB-453, 3 h), the IC50 fell in the range of 50 to 100 nM.

Molecule `Cc1cc([C@@H](C)Nc2ccc(C)nc2C(=O)O)c2oc(-c3ccccc3)c(C(F)(F)F)c(=O)c2c1` [Example 116, 6-Methyl-3-[[(1R)-1-[6-methyl-4-oxo-2-phenyl-3-(trifluoromethyl)-chromen-8-yl]ethyl]amino]pyridine-2-carboxylic acid] gave an IC50 in test [3] (Homo sapiens, MDA-MB-453, 3 h) of less than 50 nM.

(Values after patent US11873295B2, “Allosteric chromenone inhibitors of phosphoinositide 3-kinase (PI3K) for the treatment of disease” (Petra Pharma Corporation, priority 2021, dated 2024).)
